# Test results reported in patent publication US7388025B2, “3-aryl-isoxazole-4-carbonyl-benzofuran derivatives” (Hoffman-La Roche Inc., priority 2005, dated 2008).
# Biological target: T1, human GABA A receptor α5β3γ2 (Homo sapiens, UniProt P18507+P31644)
# T1 construct: expressed in transfected cells; host or cells: HEK293 cells, transiently transfected; membranes prepared from them
# Assay: [3H]flumazenil competition binding, HEK293 cells expressing human GABA A α5β3γ2 receptors
# Settings: human α5β3γ2 in HEK293 (transiently transfected), 0.5 nM [3H]flumazenil, mean of two determinations; read-out: Ki[nM] hα5
# Procedure: Membrane Preparation and Binding Assay
# The affinity of compounds at GABA A receptor subtypes was measured by competition for [3H]flumazenil (85 Ci/mmol; Roche) binding to HEK293 cells expressing rat (stably transfected) or human (transiently transfected) receptors of composition α1β3γ2, α2β3γ2, α3β3γ2 and α5β3γ2.
# Cell pellets were suspended in Krebs-tris buffer (4.8 mM KCl, 1.2 mM CaCl2, 1.2 mM MgCl2, 120 mM NaCl, 15 mM Tris; pH 7.5; binding assay buffer), homogenized by polytron for ca. 20 sec on ice and centrifuged for 60 min at 4° C. (50000 g; Sorvall, rotor: SM24=20000 rpm). The cell pellets were resuspended in Krebs-tris buffer and homogenized by polytron for ca. 15 sec on ice. Protein was measured (Bradford method, Bio-Rad) and aliquots of 1 mL were prepared and stored at −80° C.
# Radioligand binding assays were carried out in a volume of […] (96-well plates) which contained […] of cell memebranes, [3H]flumazenil at a concentration of 1 nM for α1, α2, α3 subunits and 0.5 nM for α5 subunits and the test compound in the range of […]. Nonspecific binding was defined by 10^−5 M diazepam and typically represented less than 5% of the total binding. Assays were incubated to equilibrium for 1 hour at 4° C. and harvested onto GF/C uni-filters (Packard) by filtration using a Packard harvester and washing with ice-cold wash buffer (50 mM Tris; pH 7.5). After drying, filter-retained radioactivity was detected by liquid scintillation counting. Ki values were calculated using Excel-Fit (Microsoft) and are the means of two determinations.
row,Ki,SMILES
1,15.1 nM,"Cc1onc(-c2ccc(Br)cc2)c1C(=O)c1cc2cccc(OCc3ncnn3C)c2o1 [Example 38, [3-(4-Bromo-phenyl)-5-methyl-isoxazol-4-yl]-[7-(2-methyl-2H-[1,2,4]triazol-3-ylmethoxy)-benzofuran-2-yl]-methanone]"
2,13.7 nM,"Cc1onc(-c2ccccc2)c1C(=O)c1cc2c(ccc3ccccc32)o1 [Example 27, (5-Methyl-3-phenyl-isoxazol-4-yl)-naphtho[2,1-b]furan-2-yl-methanone]"
3,10.1 nM,"Cc1onc(-c2ccccc2)c1C(=O)c1cc2cc(OC(F)(F)F)ccc2o1 [Example 23, (5-Methyl-3-phenyl-isoxazol-4-yl)-(5-trifluoromethoxy-benzofuran-2-yl)-methanone]"
4,32.9 nM,"Cc1onc(-c2ccc(Br)cc2)c1C(=O)c1cc2cccc(OC(C)C)c2o1 [Example 33, [3-(4-Bromo-phenyl)-5-methyl-isoxazol-4-yl]-(7-isopropoxy-benzofuran-2-yl)-methanone]"
5,3.7 nM,"COc1cccc2cc(C(=O)c3c(-c4ccc(Br)cc4)noc3C)oc12 [Example 31, [3-(4-Bromo-phenyl)-5-methyl-isoxazol-4-yl]-(7-methoxy-benzofuran-2-yl)-methanone]"
6,10.6 nM,"COc1cccc2oc(C(=O)c3c(-c4ccccc4)noc3C)cc12 [Example 25, (4-Methoxy-benzofuran-2-yl)-(5-methyl-3-phenyl-isoxazol-4-yl)-methanone]"
7,36.4 nM,"Cc1onc(-c2ccc(Br)cc2)c1C(=O)c1cc2cccc(OCc3cccnc3)c2o1 [Example 35, [3-(4-Bromo-phenyl)-5-methyl-isoxazol-4-yl]-[7-(pyridin-3-ylmethoxy)-benzofuran-2-yl]-methanone]"
8,2.9 nM,"COc1ccc2oc(C(=O)c3c(-c4ccc(Br)cc4)noc3C)cc2c1 [Example 43, [3-(4-Bromo-phenyl)-5-methyl-isoxazol-4-yl]-(5-methoxy-benzofuran-2-yl)-methanone]"
9,2.3 nM,"Cc1onc(-c2ccc(Br)cc2)c1C(=O)c1cc2cccc(OCC(=O)NC(C)C)c2o1 [Example 37, 2-{2-[3-(4-Bromo-phenyl)-5-methyl-isoxazole-4-carbonyl]-benzofuran-7-yloxy}-N-isopropyl-acetamide]"
10,7.5 nM,"Cc1onc(-c2ccccc2)c1C(=O)c1cc2cccc(Br)c2o1 [Example 3, (7-Bromo-benzofuran-2-yl)-(5-methyl-3-phenyl-isoxazol-4-yl)-methanone]"
11,16.7 nM,"Cc1onc(-c2ccccc2)c1C(=O)c1cc2cccc(OCc3ccccn3)c2o1 [Example 8, (5-Methyl-3-phenyl-isoxazol-4-yl)-[7-(pyridin-2-ylmethoxy)-benzofuran-2-yl]-methanone]"
12,6.5 nM,"CCOc1cccc2cc(C(=O)c3c(-c4ccccc4)noc3C)oc12 [Example 6, (7-Ethoxy-benzofuran-2-yl)-(5-methyl-3-phenyl-isoxazol-4-yl)-methanone]"
13,4.6 nM,"COc1ccc2oc(C(=O)c3c(-c4ccccc4)noc3C)cc2c1 [Example 22, (5-Methoxy-benzofuran-2-yl)-(5-methyl-3-phenyl-isoxazol-4-yl)-methanone]"
14,17.4 nM,"Cc1onc(-c2ccc(Br)cc2)c1C(=O)c1cc2cccc(O)c2o1 [Example 30, [3-(4-Bromo-phenyl)-5-methyl-isoxazol-4-yl]-(7-hydroxy-benzofuran-2-yl)-methanone]"
15,3.1 nM,"COc1ccc2cc(C(=O)c3c(-c4ccc(Br)cc4)noc3C)oc2c1 [Example 41, [3-(4-Bromo-phenyl)-5-methyl-isoxazol-4-yl]-(6-methoxy-benzofuran-2-yl)-methanone]"
16,15.2 nM,"Cc1onc(-c2ccccc2)c1C(=O)c1cc2ccccc2o1 [Example 1, Benzofuran-2-yl-(5-methyl-3-phenyl-isoxazol-4-yl)-methanone]"
17,36.3 nM,"Cc1onc(-c2ccc(Br)cc2)c1C(=O)c1cc2cccc(OCc3ccccn3)c2o1 [Example 34, [3-(4-Bromo-phenyl)-5-methyl-isoxazol-4-yl]-[7-(pyridin-2-ylmethoxy)-benzofuran-2-yl]-methanone]"
